Reference: patent US20080207738A1, “DRUG COMBINATIONS TO TREAT DRUG RESISTANT TUMORS” (priority 2007, published 2008)
Like-named read-outs stand apart in the source and are kept apart here.

Assays:
[1] = tested on: parent L5178 mouse T-cell lymphoma cells; test: MTT cell viability, parent L5178 cells; conditions: L5178Y, 30,000 cells per well, 72 h
Excerpt: (§1) For the determination of relative number of viable cells before and after treatments, in most cases the MTT assay was used. This calorimetric assay is based on the ability of living cells, but not dead cells, to reduce 3-(4, 5-dimethyl thiazol-2-yl)-2, 5-diphenyltetrazolium bromide [Carmichael, J, De Graff, W. G., Gazdar, A. F., Minna, J. D. and Mitchell, J. B. (1987), “Evaluation oftetrazolium-based semiautomated calorimetric assay: Assessment of chemosensitivity testing,” Cancer Res., 47, 936-942]. For this assay, cells were plated in 96-well plates (10,000-30,000 cells in case of cultured cells, 100,000 cells in case of healthy lymphocytes, and 200,000 cells in case of chronic lymphocytic leukemia or non-Hodgkin lymphocytes) in the respective incubation media. After a 24-h resting period, the cells were treated with the test agents and then incubated (in CO2 incubator under humidified atmosphere) for 72 hours (final incubation volume, 150 μl). The MTT assay was performed both with the untreated and treated cell cultures at the conclusion of the incubation. Often, the MTT assay also was performed at the start of treatments to allow assessment of proliferation rates in the control and treated cell cultures. All data presented are the average of 4 incubations (in 4 separate wells) with the same cell population.
Parent L5178 cells were seeded at 10,000 cells per well in 96-well plates and then incubated for 72 hours in the absence or presence of CCcompound104 (1 or 5 μg/ml) and various concentrations of CCcompound26 as indicated in Table 5.
(§2) Epirubicin, like doxorubicin and other antracyclins, is an MDR1 substrate. The goal of this experiment was to use epirubicin as a model compound to determine if in L5178/MDR1 cells CCcompound104 also can enhance the effects of MDR1 substrate anti-cancer agents other than CCcompound26 and other thioxanthene or thioxanthone CC compounds. The parent and MDR1 expressing cells were seeded at 30,000 cells per well in 96-well microplates and after a 24-h resting period treated with increasing concentrations of epirubicin n in the absence or presence of 5 μg/ml of CCcompound104 for 72 hours.

[2] = tested on: L5178/MDR1 mouse T-cell lymphoma cells; test: cells; conditions: mouse, 72 h
Excerpt: as §1
L5178/MDR1 cells were seeded at 10,000 cells per well in 96-well plates and then incubated for 72 hours in the absence or presence of 5 μg/ml of CCcompound104 and various concentrations of CCcompound26 as indicated in Table 6.
as §2

MCF-7/ADR cells = test: MTT cell viability, MCF-7/ADR cells; type: cell-based, human; conditions: 72 h, CCcompound104 5 μg/ml, EA 60 μM, CCcompound26/CCcompound3/CCcompound19 50 μM, alone or combined
Experimental: MCF/ADR cells were selected by incubating the parent MCF-7 with toxic concentrations (up to 10 μM) of adriamycin (doxorubicin). The selected drug resistant cells express both MDR1 and MRP1 among other molecular alterations as reviewed earlier [Kiss, Z., Tomono, M. and Anderson, W. B. (1994), “Phorbol ester selectively stimulates the phospholipase D-mediated hydrolysis of phosphatidylethanolamine in multidrug-resistant MCF-7 human breast carcinoma cells,” Biochem. J., 302, 649-654]. […] Ethacrynic acid (EA) alone, used at 60 μM concentration, decreased cell viability by about 24%, while CCcompound104 and EA in combination had 70% inhibitory effects (Table 7). In this cell line CCcompound104 and EA decreased cell viability synergistically.

in vitro = conditions: human
Excerpt: as §1
Peripheral lymphocytes are known to be very sensitive to chemotherapy and this sensitivity often limits the dose of chemotherapy that can be employed. In this series of experiments, the combined effects of CCcompound104 alone or in combination with CCcompound26 or CCcompound3 were determined on the viability of peripheral lymphocytes to establish doses that reduce cell viability less than 50%. As in previous experiments, the treatments were performed for 72 hours.

CLL cells = test: cells; conditions: Homo sapiens, CLL cell; for cytotoxicity at 5 µM: 72 h, CCcompound3 5 μM, alone or combined
Experimental: Heparinized peripheral-blood samples were obtained from chronic lymphocytic leukemia patients with more than 70% malignant cells after informed consent, in accordance with the Declaration of Helsinki. The blood samples (10-ml) were diluted 1:1 with cold phosphate buffered saline (PBS; 0.135 M NaCl, 2.7 mM KCl, 1.5 mM KH2PO4, 8 mM Na2HPO4 [pH 7.4]) and layered onto Ficoll-Hypaque (8-ml, specific gravity, 1.086; Life Technologies, Grand Island, N.Y.). Then, the blood was centrifuged at 433 g for 20 min, and mononuclear cells were removed from the interphase. Cells were washed twice with cold PBS and after each centrifugation step the pelleted cells were resuspended in 10-ml RPMI 1640 supplemented with 10% fetal bovine serum (inactivated for 30 min at 56° C.). A Coulter channelyzer (Coulter Electronics, Hialeah, Fla.) was used to determine the cell number. Then the number of cells was adjusted to 1×10^7 cells per 1 ml before using them for the experiments.
as §1

[3] = tested on: lymphoma cells derived from non-Hodgkin patients; test: MTT cell viability, lymphoma cells from non-Hodgkin patients; type: cell-based; conditions: Homo sapiens, 72 h, CCcompound104 5 μg/ml, CCcompound26 1 μM, read-out: Inhibition (%) of viability
Experimental: Lymphoma cells derived from two non-Hodgkin lymphoma patients were treated with EA (15 μM) in the absence or presence of CCcompound104 (5 μg/ml)+CCcompound26 (1 μM) for 72 hours. […] However, the 3 agents together decreased the number of viable cells by 91 and 97%, respectively (Table 13).

MCF-7 cells = test: Cell viability, MCF-7 cells; type: cell-based; conditions: Homo sapiens, MCF7, 72 h, read-out: decrease of cell viability
Experimental: The MCF-7 cells were isolated from a human mammary tumor. After combined treatments with 5 μg/ml of CCcompound104 and 1 μM of CCcompound26 for 72 hours, the viability of these cells was decreased by 42%. EA (30 μM) alone decreased cell viability by 32%, while the 3 agents together decreased cell viability about 100% (i.e. practically no viable cells remained after the treatments).

COc1cccc2c1C(=O)c1c(O)c3c(c(O)c1C2=O)C[C@@](O)(C(=O)CO)C[C@@H]3O[C@H]1C[C@H](N)[C@@H](O)[C@H](C)O1 [Epirubicin, epirubicin, reference compound]
Inhibition (%) of viability ([1]; Epirubicin 0.156 μg/ml without or with CC104 5 μg/ml): 6.1%
Inhibition (%) of viability ([1]; Epirubicin 0.312 μg/ml without or with CC104 5 μg/ml): 41.5%
Inhibition (%) of viability ([1]; Epirubicin 0.625 μg/ml without or with CC104 5 μg/ml): 98.6%
Inhibition (%) of viability ([1]; Epirubicin 1.250 μg/ml without or with CC104 5 μg/ml): 100%
Inhibition (%) of viability ([1]; Epirubicin 2.500 μg/ml without or with CC104 5 μg/ml): 100%
Inhibition (%) of viability ([1]; Epirubicin 5.000 μg/ml without or with CC104 5 μg/ml): 100%
Inhibition (%) of viability ([2]; 0.156 µg/ml): 0%
Inhibition (%) of viability ([2]; 0.312 μg/ml): 0%
Inhibition (%) of viability ([2]; 0.625 μg/ml): 0%
Inhibition (%) of viability ([2]; 1.25 μg/ml): 0%
Inhibition (%) of viability ([2]; 2.5 μg/ml): 12.2%
Inhibition (%) of viability ([2]; 5 μg/ml): 32.4%

CC[N+](C)(CC)CCOCc1ccc2sc3ccccc3c(=O)c2c1 [CCcompound3]
Inhibition (%) of viability (MCF-7/ADR cells): 20.0%
cytotoxicity at 72 h, 1 μM (in vitro; Inhibition (%) of viability): 0%
cytotoxicity at 72 h, 50 μM (in vitro; decrease of viability of healthy lymphocytes): 6%
cytotoxicity at 5 µM (CLL cells; read-out: Inhibition (%) of viability, CLL patient 8, CCcompound104 5 μg/ml): 7.8%
cytotoxicity at 5 µM (CLL cells; read-out: Inhibition (%) of viability, CLL patient 9, CCcompound104 5 μg/ml): 11.1%
cytotoxicity at 5 µM (CLL cells; read-out: Inhibition (%) of viability, CLL patient 10, CCcompound104 5 μg/ml): 32%
cytotoxicity at 5 µM (CLL cells; read-out: Inhibition (%) of viability, CLL patient 11, CCcompound104 5 μg/ml): 33.3%
cytotoxicity at 5 µM (CLL cells; read-out: Inhibition (%) of viability, CLL patient 12, CCcompound104 5 μg/ml): 26%
cytotoxicity at 5 µM (CLL cells; read-out: Inhibition (%) of viability, CLL patient 13, CCcompound104 5 μg/ml): 12.5%
cytotoxicity at 5 µM (CLL cells; read-out: Inhibition (%) of viability, CLL patient 14, CCcompound104 5 μg/ml): 36.3%
cytotoxicity at 5 µM (CLL cells; read-out: Inhibition (%) of viability, CLL patient 15, CCcompound104 5 μg/ml): 3.3%
cytotoxicity at 5 µM (CLL cells; read-out: Inhibition (%) of viability, CLL patient 16, CCcompound104 5 μg/ml): 50.1%
cytotoxicity at 5 µM (CLL cells; read-out: Inhibition (%) of viability, CLL patient 17, CCcompound104 5 μg/ml): 0%
cytotoxicity at 5 µM (CLL cells; read-out: Inhibition (%) of viability, CLL patient 18, CCcompound104 5 μg/ml): 6%
cytotoxicity at 5 µM (CLL cells; read-out: Inhibition (%) of viability, CLL patient 19, CCcompound104 5 μg/ml): 9.2%
cytotoxicity at 5 µM (CLL cells; read-out: Inhibition (%) of viability, CLL patient 20, CCcompound104 5 μg/ml): 0%

C[N+](C)(C)CCC=C1c2ccccc2Sc2ccccc21.[I-] [CCcompound19, N,N,N-trimethyl-3-(9H-thioxanthen-9-ylidene)-propan-1-aminium iodide]
Inhibition (%) of viability (MCF-7/ADR cells): 20.2%

C=C(CC)C(=O)c1ccc(OCC(=O)O)c(Cl)c1Cl [EA, ethacrynic acid]
cytotoxicity at 60 µM (MCF-7/ADR cells; Homo sapiens, NCI/ADR-RES, read-out: Inhibition (%) of viability): ~24%
cytotoxicity at 30 µM (CLL cells; read-out: Inhibition (%) of viability, resistant CLL cells, patient 17, EA 30 μM, CCcompound104 5 μg/ml, CCcompound26 1 μM): 31.8%
cytotoxicity at 30 µM (CLL cells; read-out: Inhibition (%) of viability, resistant CLL cells, patient 18, EA 30 μM, CCcompound104 5 μg/ml, CCcompound26 1 μM): 38.3%
cytotoxicity at 30 µM (CLL cells; read-out: decrease of viability of resistant CLL cells, over patients 17 and 18, EA 30 μM, CCcompound104 5 μg/ml, CCcompound26 1 μM): 31 to 38%
cytotoxicity at 15 µM ([3]; non-Hodgkin patient 1, EA 15 μM): 36.8%
cytotoxicity at 15 µM ([3]; non-Hodgkin patient 2, EA 15 μM): 42.4%
cytotoxicity at 15 µM ([3]; non-Hodgkin patient 3, EA 15 μM): 48.2%
cytotoxicity at 15 µM ([3]; non-Hodgkin patient 4, EA 15 μM): 53.1%
cytotoxicity at 30 µM (MCF-7 cells): 32%
